# Test results: publication PMC10339607, “Screening and identification of emodin as an EBV DNase inhibitor to prevent its biological functions” (Virology Journal, 2023)
# Target: T1, EBV DNase (BGLF5) (Epstein-barr virus strain ag876, UniProt Q1HVE7)
# T1 construct: full-length wild-type, 470 amino acids; pET-15b His-tag; E. coli BL21(DE3) pLysS
# Assay: PicoGreen fluorescence nuclease activity assay
# Type: biochemical
# T1 sequence (Q1HVE7 whole entry): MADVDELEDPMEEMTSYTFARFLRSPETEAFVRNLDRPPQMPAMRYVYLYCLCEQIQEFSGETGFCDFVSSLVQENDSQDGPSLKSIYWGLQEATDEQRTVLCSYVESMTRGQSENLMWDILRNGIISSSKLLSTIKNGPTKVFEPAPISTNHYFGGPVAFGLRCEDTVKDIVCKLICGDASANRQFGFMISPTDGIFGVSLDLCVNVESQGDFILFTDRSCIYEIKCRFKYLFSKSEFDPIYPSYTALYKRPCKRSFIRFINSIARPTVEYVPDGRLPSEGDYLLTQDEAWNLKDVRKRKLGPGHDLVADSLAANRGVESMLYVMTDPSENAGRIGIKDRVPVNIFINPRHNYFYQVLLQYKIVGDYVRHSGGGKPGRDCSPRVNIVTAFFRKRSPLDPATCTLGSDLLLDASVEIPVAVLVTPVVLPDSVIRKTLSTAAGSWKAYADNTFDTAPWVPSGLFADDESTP
row,Compound,IC50 [µM]
1,Cc1cc(O)c2c(c1)C(=O)c1cc(O)cc(O)c1C2=O [emodin],31
2,O=c1c(O)c(-c2ccc(O)cc2)oc2cc(O)cc(O)c12 [Kaempferol],69
3,O=C(O[C@@H]1Cc2c(O)cc(O)cc2O[C@@H]1c1cc(O)c(O)c(O)c1)c1cc(O)c(O)c(O)c1 [epigallocatechin gallate],89
4,C=CCSSCC=C [diallyl disulfide],> 100
5,C[S@@+]([O-])CCCCN=C=S [sulforaphane],> 100
